# Measured values taken from ChEMBL document CHEMBL1129973, “HIV-1 integrase pharmacophore: discovery of inhibitors through three-dimensional database searching” (J Med Chem, 1997).
# Columns and labels:
# [1] = molecular target: T1, Human immunodeficiency virus type 1 integrase (Human immunodeficiency virus 1, UniProt Q7ZJM1); assay: Inhibitory concentration against HIV-1 integrase by strand transfer method
# [2] = molecular target: T1, Human immunodeficiency virus type 1 integrase; assay: Inhibitory concentration to inhibit HIV-1 integrase by 3' -processing method
# [3] = molecular target: T1, Human immunodeficiency virus type 1 integrase; assay: Inhibitory concentration required to inhibit HIV-1 integrase by strand transfer method
# [4] = molecular target: T1, Human immunodeficiency virus type 1 integrase; assay: Inhibitory concentration to inhibit HIV-1 integrase by 3' -processing
# T1 sequence (Q7ZJM1 whole entry): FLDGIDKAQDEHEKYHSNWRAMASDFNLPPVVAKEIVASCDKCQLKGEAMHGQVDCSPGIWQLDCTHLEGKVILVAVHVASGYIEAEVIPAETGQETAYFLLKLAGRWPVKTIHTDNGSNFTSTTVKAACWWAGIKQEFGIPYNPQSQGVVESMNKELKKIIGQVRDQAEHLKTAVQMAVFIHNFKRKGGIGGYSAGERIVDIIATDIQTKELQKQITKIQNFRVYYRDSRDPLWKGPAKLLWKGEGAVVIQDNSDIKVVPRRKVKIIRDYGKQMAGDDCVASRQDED
IC50 [1] [µM],IC50 [2] [µM],IC50 [3] [µM],IC50 [4] [µM],SMILES
77,134,–,–,CC1=NN(c2ccccc2)C(=O)C1/N=N/c1ccc(S(=O)(=O)Nc2nnc(C)s2)cc1 (stereo not given)
8.8,8.2,–,–,NNS(=O)(=O)c1ccc(OCC(=O)O)cc1
143,193,–,–,CC(=O)C1(/N=N/c2ccc(S(=O)(=O)Nc3onc(C)c3C)cc2)CCOC1=O (stereo not given)
> 200,> 200,–,–,Cc1cc(NS(=O)(=O)c2ccc(N/N=C3/C(=N)C(C)C(=O)C(C)C3=O)cc2)nc(C)n1 (stereo not given)
> 200,> 200,–,–,Cc1nnc(NS(=O)(=O)c2ccc(N/N=C3/C(=N)C(C)C(=O)C(C)C3=O)cc2)s1 (stereo not given)
19,24,–,–,Cc1nnc(NS(=O)(=O)c2ccc(C3SC(=S)NC3=O)cc2)s1 (stereo not given)
112,140,–,–,O=C(Nc1ccc(S(=O)(=O)Nc2ccc(/N=N/c3ccccc3)cc2)cc1)C(Sc1[nH]cnc2ncnc1-2)Sc1[nH]cnc2ncnc1-2
> 200,> 200,–,–,CC(=O)C1(/N=N/c2ccc(S(=O)(=O)Nc3ccccn3)cc2)CCOC1=O (stereo not given)
> 200,> 200,–,–,CC(=O)N(C(C)=O)c1nc2c(c(=O)n(C)c(=O)n2C)n1C
44.6,75.5,–,–,Cc1cc(C)nc(NS(=O)(=O)c2ccc(NC(=O)c3cccn4c(=O)c5ccccc5nc34)cc2)n1
> 200,> 200,–,–,Cc1ccnc(NS(=O)(=O)c2ccc(N/N=C3/C(=N)C(C)C(=O)C(C)C3=O)cc2)n1 (stereo not given)
> 200,> 200,–,–,CCOC(=O)C(CCCCn1cnc2ncnc(Cl)c21)(NC(C)=O)C(=O)OCC
> 200,> 200,–,–,CC(=O)Nc1ccc(S(=O)(=O)/N=N/NCC(=O)O)cc1
> 200,> 200,–,–,CCOC(=O)C(/C=N/c1ccc(S(N)(=O)=O)cc1)C(=O)OCC
> 200,> 200,–,–,CC1=NN(c2ccccc2)C(=O)C1/N=N/c1ccc(S(=O)(=O)Nc2ccccn2)cc1 (stereo not given)
> 200,> 200,–,–,COc1cc(NS(=O)(=O)c2ccc(C(C)=O)cc2)nc(OC)n1
> 200,> 200,–,–,CC1=NN(c2ccccc2)C(=O)C1/N=N/c1ccc(S(N)(=O)=O)cc1 (stereo not given)
80,122,–,–,Cc1ccnc(NS(=O)(=O)c2ccc(NC(=O)Nc3ccc(Cl)c(C(F)(F)F)c3)cc2)n1
> 200,> 200,–,–,CCOC(=O)COc1ccc(S(=O)(=O)c2ccc(OCC(=O)OCC)cc2)cc1
> 200,> 200,–,–,CS(=O)(=O)c1nc2ccc(N3C(=O)c4ccccc4C3=O)cc2s1

IC50 [1] [µM],IC50 [2] [µM],IC50 [3] [µM],IC50 [4] [µM],SMILES
> 200,> 200,–,–,Cc1cc(C)nc(NS(=O)(=O)c2ccc(CN3C(=O)c4ccccc4C3=O)cc2)n1
> 200,> 200,–,–,CCOC(=O)N(CCCCCCNC(c1ccccc1)S(=O)(=O)O)c1ccccc1 (stereo not given)
13.7,48.3,–,–,Cc1cc(C)nc(NS(=O)(=O)c2ccc(NC(=O)c3cccc4c(N)c5ccccc5nc34)cc2)n1
> 200,> 200,–,–,CCC(=O)CCC1=Nc2nnc(CCCCc3nnc4n3C(=O)C(CCC(=O)CC)=N4)n2C1=O
> 200,> 200,–,–,Cc1csc(NS(=O)(=O)c2ccc(N/N=C3/C(=N)C(C)C(=O)C(C)C3=O)cc2)c1C (stereo not given)
> 200,> 200,–,–,NS(=O)(=O)c1ccc(NC(=O)/C=C\C(=O)O)cc1
> 200,> 200,–,–,O=C(O)c1ccccc1/C=N/NC1=CS(=O)(=O)C=C1
> 200,> 200,–,–,CC1=NN(c2ccccc2)C(=O)C1/N=N/c1ccc(S(=O)(=O)Nc2cc(C)nc(C)n2)cc1 (stereo not given)
> 200,> 200,–,–,CC1=NN(c2ccccc2)C(=O)C1/N=N/c1ccc(S(=O)(=O)Nc2ncccn2)cc1 (stereo not given)
23.6,49,–,–,CC1=NN(c2ccccc2)C(=O)C1/N=N/c1ccc(S(=O)(=O)Nc2nccc(C)n2)cc1 (stereo not given)
96,120,–,–,Nc1nc(N)c(/N=N/c2ccc(S(=O)(=O)NC(=O)c3ccccc3)cc2)c(O)n1
178,244,–,–,CC(=O)C1(/N=N/c2ccc(S(=O)(=O)Nc3nnc(C)s3)cc2)CCOC1=O (stereo not given)
14.3,27.9,–,–,CC(=O)Nc1cccc2cc(S(=O)(=O)O)ccc12
> 200,> 200,–,–,CC(=O)Nc1cc2cc(NS(=O)(=O)c3cc(C(F)(F)F)cc(C(F)(F)F)c3)ccc2oc1=O
> 200,> 200,–,–,CC1C(=N)/C(=N/Nc2ccc(S(=O)(=O)Nc3ccccn3)cc2)C(=O)C(C)C1=O (stereo not given)
> 200,> 200,–,–,CC1C(=N)/C(=N/Nc2ccc(S(=O)(=O)Nc3nccs3)cc2)C(=O)C(C)C1=O (stereo not given)
> 200,> 200,–,–,NS(=O)(=O)c1ccc(NC=C2C(=O)N(c3ccccc3)N(c3ccccc3)C2=O)cc1
> 200,> 200,–,–,NS(=O)(=O)c1ccc(NC(=O)/C=C/C(=O)O)cc1
> 200,> 200,–,–,CC1C(=N)/C(=N/Nc2ccc(S(=O)(=O)Nc3ncccn3)cc2)C(=O)C(C)C1=O (stereo not given)
> 200,> 200,–,–,O=C(CNC(=O)c1cnc2ccccc2n1)NCCCNC(=O)CNC(=O)c1cnc2ccccc2n1

IC50 [1] [µM],IC50 [2] [µM],IC50 [3] [µM],IC50 [4] [µM],SMILES
> 200,> 200,–,–,Cc1ccccc1CN1C2=NCCN2C(=O)C2=C1CCN(S(=O)(=O)c1ccc(Cl)c(S(N)(=O)=O)c1)C2
2.7,3.4,–,–,CC(=O)Nc1ccc(N)c2cc(S(=O)(=O)O)ccc12
> 200,> 200,–,–,C=C1CC(c2ccc(S(=O)(=O)N3CCOCC3)cc2)OC1=O (stereo not given)
> 200,> 200,–,–,COC(=O)c1noc2c1CSC1=C2CS(=O)(=O)c2ccccc21
> 200,> 200,–,–,CC(=O)NCCSS(=O)(=O)CCCCCS(=O)(=O)SCCNC(C)=O
> 200,> 200,–,–,CC(=O)OCC1OC(n2ccc(-n3cncn3)nc2=O)CC1N=[N+]=[N-] (stereo not given)
61,71,–,–,NC1=NNC(=O)C1/N=N/c1ccc(S(=O)(=O)Nc2nccs2)cc1 (stereo not given)
> 200,> 200,–,–,CCOC(=S)SC1OC(COC(C)=O)C(OC(C)=O)C(OC(C)=O)C1OC(C)=O (stereo not given)
> 200,> 200,–,–,CCOC(=O)C(Cc1cn(S(=O)(=O)c2ccccc2)c2ccccc12)(NC(C)=O)C(=O)OCC
> 200,> 200,–,–,CCC(=O)C(C)C(=O)C(=O)NCCNC(=O)C(=O)C(C)C(=O)CC (stereo not given)
–,–,97,124,CC1=NN(c2ccccc2)C(=O)C1/N=N/c1ccc(S(=O)(=O)Nc2scc(C)c2C)cc1 (stereo not given)
65,70,–,–,CC(=O)C1(/N=N/c2ccc(S(=O)(=O)Nc3nccc(C)n3)cc2)CCOC1=O (stereo not given)
> 200,> 200,–,–,CS(=O)(=O)Nc1ccc2oc(=O)c3ccccc3c2c1
> 200,> 200,–,–,NS(=O)(=O)c1ccc(NN=C2C(=O)N(c3ccccc3)N(c3ccccc3)C2=O)cc1
14,28.6,–,–,O=C1NC(=S)SC1c1ccc(S(=O)(=O)Nc2ncccn2)cc1 (stereo not given)
126,209,–,–,NS(=O)(=O)c1ccc(/N=N/C2Sc3nc4ccccc4n3C2=O)cc1 (stereo not given)
> 200,> 200,–,–,Nc1ncnc2c1ncn2[C@@H]1O[C@H](CO[C@@H]2[C@@H](O)[C@H](OS(=O)(=O)O)[C@H](O)[C@@H](O[C@H]3O[C@@H](CO)[C@@H](O)[C@H](O)[C@@H]3N)[C@]2(O)C(=O)[C@@H](N)CO)[C@@H](O)[C@H]1O
> 200,> 200,–,–,O=C(O)[C@H]1OC(n2cc([N+](=O)[O-])c(=O)[nH]c2=O)[C@H](O)[C@@H]1O (stereo not given in full)

SMILES,IC50 [1] [µM],IC50 [2] [µM],IC50 [3] [µM],IC50 [4] [µM]
CC(=O)Nc1cc(S(=O)(=O)O)cc2cc(S(=O)(=O)O)cc(O)c12,0.29,0.47,–,–
O=C(Nc1ccc(S(=O)(=O)Nc2ccc(/N=N/c3ccc(S(=O)(=O)Nc4nccs4)cc3)cc2)cc1)C(N1CC1)(N1CC1)N1CC1,> 200,> 200,–,–
